The target in assay [1] is Tyrosine-protein kinase BTK (Homo sapiens, UniProt Q06187). As to the kind of experiment: Inhibition of human recombinant BTK.
Assay [2] addresses Tyrosine-protein kinase JAK2 (Homo sapiens, UniProt O60674). As to the kind of experiment: Inhibition of JAK2 (unknown origin).

Tyrosine-protein kinase JAK2, sequence (O60674 whole entry): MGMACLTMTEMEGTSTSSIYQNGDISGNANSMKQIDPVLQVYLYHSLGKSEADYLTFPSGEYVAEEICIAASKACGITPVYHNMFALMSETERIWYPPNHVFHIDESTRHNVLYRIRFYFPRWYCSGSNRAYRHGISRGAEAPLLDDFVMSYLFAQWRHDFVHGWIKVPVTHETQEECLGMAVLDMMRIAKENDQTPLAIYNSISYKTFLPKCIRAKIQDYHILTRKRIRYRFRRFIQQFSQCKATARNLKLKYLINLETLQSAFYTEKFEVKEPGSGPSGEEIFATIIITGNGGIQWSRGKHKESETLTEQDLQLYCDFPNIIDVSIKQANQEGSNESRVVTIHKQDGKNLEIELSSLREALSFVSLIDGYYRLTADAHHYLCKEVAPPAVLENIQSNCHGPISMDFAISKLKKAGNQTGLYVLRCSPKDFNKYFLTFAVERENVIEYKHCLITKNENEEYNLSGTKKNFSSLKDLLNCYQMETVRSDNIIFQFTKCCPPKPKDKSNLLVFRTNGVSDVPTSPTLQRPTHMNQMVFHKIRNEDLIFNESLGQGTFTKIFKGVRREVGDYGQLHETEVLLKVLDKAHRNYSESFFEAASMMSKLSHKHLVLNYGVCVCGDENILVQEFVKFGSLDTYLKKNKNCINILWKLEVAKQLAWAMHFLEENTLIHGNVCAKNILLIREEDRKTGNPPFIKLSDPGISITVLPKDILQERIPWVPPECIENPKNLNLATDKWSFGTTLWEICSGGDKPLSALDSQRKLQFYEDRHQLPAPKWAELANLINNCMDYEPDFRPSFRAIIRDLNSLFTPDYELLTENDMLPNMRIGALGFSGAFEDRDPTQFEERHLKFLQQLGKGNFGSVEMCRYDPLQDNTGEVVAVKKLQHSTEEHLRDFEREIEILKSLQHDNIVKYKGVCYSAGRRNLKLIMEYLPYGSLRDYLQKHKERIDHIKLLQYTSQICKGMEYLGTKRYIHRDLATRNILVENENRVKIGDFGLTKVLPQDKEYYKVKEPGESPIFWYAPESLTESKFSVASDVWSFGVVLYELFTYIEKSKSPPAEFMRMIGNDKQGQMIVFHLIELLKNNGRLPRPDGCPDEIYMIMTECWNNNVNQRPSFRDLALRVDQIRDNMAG
Tyrosine-protein kinase BTK, sequence (Q06187 whole entry): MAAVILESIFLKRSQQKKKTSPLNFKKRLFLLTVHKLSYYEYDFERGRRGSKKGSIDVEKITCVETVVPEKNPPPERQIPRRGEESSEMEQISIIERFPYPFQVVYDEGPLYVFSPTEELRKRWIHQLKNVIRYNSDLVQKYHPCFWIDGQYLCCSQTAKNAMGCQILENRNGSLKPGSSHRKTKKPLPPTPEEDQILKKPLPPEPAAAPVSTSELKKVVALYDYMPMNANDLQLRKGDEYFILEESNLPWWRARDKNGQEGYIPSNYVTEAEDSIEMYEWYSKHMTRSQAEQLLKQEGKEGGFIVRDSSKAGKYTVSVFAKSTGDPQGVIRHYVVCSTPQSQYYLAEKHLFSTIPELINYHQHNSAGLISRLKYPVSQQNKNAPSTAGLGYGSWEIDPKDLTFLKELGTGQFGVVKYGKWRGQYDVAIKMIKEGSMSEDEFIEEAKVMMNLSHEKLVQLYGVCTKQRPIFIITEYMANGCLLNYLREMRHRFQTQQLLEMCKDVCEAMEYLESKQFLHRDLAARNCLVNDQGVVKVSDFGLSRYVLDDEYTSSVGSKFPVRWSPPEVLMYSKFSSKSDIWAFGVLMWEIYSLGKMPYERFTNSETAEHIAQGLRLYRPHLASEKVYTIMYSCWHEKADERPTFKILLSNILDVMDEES

Broadly, the IC50 is the point on the concentration scale where inhibition reaches its midpoint. For `NC(=O)c1cc(-c2ccc(Cl)c(Cl)c2)cc2c1[nH]c1ccc(C(=O)N3CCOCC3)cc12`, the IC50 in assay [1] was 461 nM.

In the case of `COc1cccc(-c2cc(C(N)=O)c3[nH]c4ccc(C(=O)N5CCOCC5)cc4c3c2)c1`, the IC50 in assay [1] is 360 nM.

`CN1CCN(C(=O)c2ccc3[nH]c4c(C(N)=O)cc(-c5ccc(Cl)cc5)cc4c3c2)CC1`: the IC50 in assay [1] was determined as 110 nM.

Turning to `COc1cccc(-c2ccc(C(N)=O)c3[nH]c4ccc(C(=O)N5CCN(C)CC5)cc4c23)c1`, the concentration for half-maximal inhibition (IC50) in assay [1] was 28 nM. As to `CC(=O)Nc1cccc(-c2ccc(C(N)=O)c3[nH]c4ccc(C(=O)N5CCN(C)CC5)cc4c23)c1`, in assay [1], the IC50 was 88 nM. Same read-out and setting: the same measure for `COc1ccc(-c2ccc(C(N)=O)c3[nH]c4ccc(C(=O)N5CCN(C)CC5)cc4c23)cc1`: 29 nM.

Turning to `CC(=O)Nc1ccc(-c2ccc(C(N)=O)c3[nH]c4ccc(C(=O)N5CCN(C)CC5)cc4c23)cc1`, the IC50 in assay [1] was 39 nM. As to `COc1cccc(-c2ccc(C(N)=O)c3[nH]c4cc(C(=O)N5CCN(C)CC5)ccc4c23)c1`, the IC50 in assay [1] came out at 32 nM.

On to `CC(=O)Nc1cccc(-c2ccc(C(N)=O)c3[nH]c4cc(C(=O)N5CCN(C)CC5)ccc4c23)c1`, for which, in assay [1], the IC50 stood at 30 nM. Regarding `COc1ccc(-c2ccc(C(N)=O)c3[nH]c4cc(C(=O)N5CCN(C)CC5)ccc4c23)cc1`, the concentration for half-maximal inhibition (IC50) in assay [1] is 55 nM. With `CC(=O)Nc1ccc(-c2ccc(C(N)=O)c3[nH]c4cc(C(=O)N5CCN(C)CC5)ccc4c23)cc1`, the IC50 in assay [1] is 15 nM. Consider `Cc1ccccc1-c1ccc(C(N)=O)c2[nH]c3cc(C(=O)N4CCN(C)CC4)ccc3c12`, for which the IC50 in assay [1] was 24 nM. On to `COc1ccccc1-c1ccc(C(N)=O)c2[nH]c3cc(C(=O)N4CCN(C)CC4)ccc3c12`, for which, in assay [1], the IC50 is 144 nM. With `CN1CCN(C(=O)c2ccc3c(c2)[nH]c2c(C(N)=O)ccc(-c4cccc(Cl)c4)c23)CC1`, the IC50 in assay [1] worked out at 38 nM. Regarding `CNC(=O)c1cccc(-c2ccc(C(N)=O)c3[nH]c4cc(C(=O)N5CCN(C)CC5)ccc4c23)c1`, the IC50 in assay [1] was 71 nM. As for `CN1CCN(C(=O)c2ccc3c(c2)[nH]c2c(C(N)=O)ccc(-c4ccc(Cl)cc4)c23)CC1`, the IC50 in assay [1] was determined as 59 nM. As for `CN1CCN(C(=O)c2ccc3c(c2)[nH]c2c(C(N)=O)ccc(-c4ccc(C(C)(C)C)cc4)c23)CC1`, in assay [1], the IC50 worked out at 103 nM. With `CNC(=O)c1ccc(-c2ccc(C(N)=O)c3[nH]c4cc(C(=O)N5CCN(C)CC5)ccc4c23)cc1`, the IC50 in assay [1] is 44 nM. Still for that read-out and setting: with `CN1CCN(C(=O)c2ccc3c(c2)[nH]c2c(C(N)=O)ccc(-c4ccc(Oc5ccccc5)cc4)c23)CC1` the figure was 127 nM; with `CN1CCN(C(=O)c2ccc3c(c2)[nH]c2c(C(N)=O)ccc(-c4ccc(Cl)c(Cl)c4)c23)CC1`, 101 nM; with `CN1CCN(C(=O)c2ccc3c(c2)[nH]c2c(C(N)=O)ccc(-c4cccc(Cl)c4Cl)c23)CC1`, 13 nM.

Take `CN1CCN(C(=O)c2ccc3c(c2)[nH]c2c(C(N)=O)ccc(-c4cccc(F)c4F)c23)CC1`: the half-inhibitory concentration (IC50) in assay [1] was 6.9 nM.

For `Cc1c(Cl)cccc1-c1ccc(C(N)=O)c2[nH]c3cc(C(=O)N4CCN(C)CC4)ccc3c12`, the IC50 in assay [1] is 32 nM. In the case of `Cc1c(N)cccc1-c1ccc(C(N)=O)c2[nH]c3cc(C(=O)N4CCN(C)CC4)ccc3c12`, the IC50 in assay [1] stood at 19 nM. With `CN1CCN(C(=O)c2ccc3c(c2)[nH]c2c(C(N)=O)ccc(-c4ccc(F)cc4F)c23)CC1`, the IC50 in assay [1] was 22 nM. On to `CN1CCN(C(=O)c2ccc3c(c2)[nH]c2c(C(N)=O)ccc(-c4c(F)cccc4F)c23)CC1`, for which, in assay [1], the IC50 was 12 nM.

For `Cc1c(NC(=O)c2ccccc2)cccc1-c1ccc(C(N)=O)c2[nH]c3cc(C(=O)N4CCN(C)CC4)ccc3c12`, the IC50 in assay [1] amounted to 7.2 nM. With `Cc1c(NC(=O)c2ccc(F)cc2)cccc1-c1ccc(C(N)=O)c2[nH]c3cc(C(=O)N4CCN(C)CC4)ccc3c12`, the concentration for half-maximal inhibition (IC50) in assay [1] amounted to 3.8 nM. Consider `Cc1c(NC(=O)c2ccc(N(C)C)cc2)cccc1-c1ccc(C(N)=O)c2[nH]c3cc(C(=O)N4CCN(C)CC4)ccc3c12`, for which, in assay [1], the IC50 was 3.5 nM. Same read-out and setting: with `Cc1c(NC(=O)c2ccc(C(C)(C)C)cc2)cccc1-c1ccc(C(N)=O)c2[nH]c3cc(C(=O)N4CCN(C)CC4)ccc3c12` the figure was 12 nM. `CN1CCN(C(=O)c2ccc3c(c2)[nH]c2c(C(N)=O)ccc(-c4cccc(NC(=O)c5ccc(F)cc5)c4F)c23)CC1`: the concentration for half-maximal inhibition (IC50) in assay [1] was determined as 9.4 nM.

`CN1CCN(C(=O)c2ccc3c(c2)[nH]c2c(C(N)=O)ccc(-c4cccc(NC(=O)c5ccc(F)cc5)c4)c23)CC1`: in assay [1], the IC50 came to 39 nM. As for `NC(=O)c1cc(-c2cccc(Cl)c2)cc2c1[nH]c1ccc(C(=O)N3CCOCC3)cc12`, the values for the IC50 in assay [1] and in assay [2] were 189 nM and 1.7 nM, respectively. On to `COc1ccc(-c2cc(C(N)=O)c3[nH]c4ccc(C(=O)N5CCOCC5)cc4c3c2)cc1`, for which the IC50 in assay [1] came out at 327 nM; in assay [2], 2 nM. In the case of `NC(=O)c1cc(-c2ccc(Cl)cc2)cc2c1[nH]c1ccc(C(=O)N3CCOCC3)cc12`, the figures for the IC50 in assay [1] and in assay [2] were 308 nM and 2.6 nM, respectively. Turning to `COc1cccc(-c2cc(C(N)=O)c3[nH]c4cc(C(=O)N5CCN(C)CC5)ccc4c3c2)c1`, the IC50 in assay [1] is 404 nM; in assay [2] it was 4.3 nM. For the molecule `COc1ccc(-c2cc(C(N)=O)c3[nH]c4cc(C(=O)N5CCN(C)CC5)ccc4c3c2)cc1`, the IC50 in assay [1] was 436 nM; in assay [2], 5.5 nM.

For `CN1CCN(C(=O)c2ccc3c(c2)[nH]c2c(C(N)=O)cc(-c4ccc(Cl)c(Cl)c4)cc23)CC1`, the half-maximal inhibitory concentration (IC50) stood at 812 nM in assay [1] and 6.2 nM in assay [2]. Consider `CC(=O)Nc1cccc(-c2cc(C(N)=O)c3[nH]c4cc(C(=O)N5CCN(C)CC5)ccc4c3c2)c1`, for which the IC50 worked out at 379 nM in assay [1] and 27 nM in assay [2].

Values taken from ChEMBL document CHEMBL3621099, “Design and synthesis of carbazole carboxamides as promising inhibitors of Bruton's tyrosine kinase (BTK) and Janus kinase 2 (JAK2)” (Bioorg Med Chem Lett, 2015).
